# Literature values as cited in patent US20150164917A1 (VALPHARMA INTERNATIONAL S.P.A., priority 2012, published 2015).
# System: uterine fibrosis
# Conditions: 5 mg daily oral for 6 months, compared with higher doses
smiles,measurement,value
CC#C[C@]1(O)CC[C@H]2[C@@H]3CCC4=CC(=O)CCC4=C3[C@@H](c3ccc(N(C)C)cc3)C[C@@]21C [Mifepristone],effects in the treatment of uterine fibrosis,effects comparable with those of higher doses of Mifepristone
